Laboratory results taken from paper PMC9331004 (Scientific Reports, 2022).
pIC50: −log10 of the molar value. Read-outs that look alike come from different tables or passages of the source.

Assays:
SARS-CoV-2 [1] = type: cell-based
[2] = test system: SARS-CoV-2 (hCoV-19/Egypt/NRC-3/2020, NRC-03-nhCoV); experiment: microbe, parasite or virus in culture; type: cell-based; details: for pIC50: Severe acute respiratory syndrome coronavirus 2, Vero C1008, 72 h
in vitro = details: African green monkey, CC50, Vero-E6 cells, crystal violet
SARS-CoV-2 [3] = experiment: microbe, parasite or virus in culture; type: cell-based
[4] = test system: MERS-CoV (isolate NRCE-HKU270); experiment: microbe, parasite or virus in culture; type: cell-based; details: for pIC50: Middle East respiratory syndrome-related coronavirus
MERS-CoV [5] = type: cell-based
MERS-CoV [6] = type: cell-based; remark: listed apart in the source
[7] = read-out: IC50 against SARS-CoV-2
[8] = Vero C1008, read-out: IC50 against MERS-CoV
[9] = Vero C1008, read-out: IC50 MERS-CoV

**Q.** With `CN(C)CCC=C1c2ccccc2CCc2ccccc21` [Amitriptyline] as the molecule, how does the “mode of action against SARS-CoV-2” value (SARS-CoV-2 [1]) read?
**A.** remarkable virucidal effect and effects on virus replication

**Q.** What about the “selectivity index (CC50/IC50) for SARS-CoV-2” value [2] of the same molecule?
**A.** 28.5

**Q.** What about the pIC50 [2, 7] of the same molecule?
**A.** 4.97

**Q.** And the CC50 at 72 h (in vitro)?
**A.** 306 µM

**Q.** And the “effect on viral RNA copy number (qRT-PCR)” value (“effect” for short) (SARS-CoV-2 [3])?
**A.** reduction in viral RNA copy number

**Q.** And the pIC50 [4, 8]?
**A.** 3.89

**Q.** With `CN(C)CCCC1(c2ccc(F)cc2)OCc2cc(C#N)ccc21` (stereo not drawn) [Citalopram] as the molecule, how does the pIC50 [2, 7] read?
**A.** 3.76

**Q.** What about the CC50 at 72 h (in vitro) of the same molecule?
**A.** 295 µM

**Q.** What about the CC50 at 72 h (in vitro; values given in Fig. 2) of the same molecule?
**A.** 295 µM

**Q.** And the pIC50 [4, 9]?
**A.** 3.52

**Q.** What about the pIC50 [4, 8] of the same molecule?
**A.** 3.52

**Q.** With `CN(C)CCC[C@@]1(c2ccc(F)cc2)OCc2cc(C#N)ccc21` [Escitalopram] as the molecule, how does the pIC50 [2, 7] read?
**A.** 3.68

**Q.** What about the CC50 at 72 h (in vitro) of the same molecule?
**A.** 352 µM

**Q.** And the pIC50 [4, 9]?
**A.** 4.03

**Q.** What about the pIC50 [4, 8] of the same molecule?
**A.** 4.03

**Q.** With `CN1CCN(C(=O)O[C@H]2c3nccnc3C(=O)N2c2ccc(Cl)cn2)CC1` [Eszopiclone] as the molecule, how does the pIC50 ([2]; read-out: IC50 SARS-CoV-2) read?
**A.** 4.10

**Q.** What about the pIC50 [2, 7] of the same molecule?
**A.** 4.10

**Q.** And the CC50 at 72 h (in vitro)?
**A.** 193 µM

**Q.** And the pIC50 [4, 8]?
**A.** 4.00

**Q.** Which “mode of action against MERS-CoV” value (MERS-CoV [5]) does the source give for `CN(C)CCCN1c2ccccc2CCc2ccccc21` [Imipramine] here?
**A.** virucidal and replication potential combination mechanisms

**Q.** What about the pIC50 ([2]; read-out: IC50 SARS-CoV-2) of the same molecule?
**A.** 4.53

**Q.** And the pIC50 [2, 7]?
**A.** 4.53

**Q.** And the CC50 at 72 h (in vitro)?
**A.** 270 µM

**Q.** And the CC50 at 72 h (in vitro; values given in Fig. 2)?
**A.** 271 µM

**Q.** What about the “effect” value (MERS-CoV [6]) of the same molecule?
**A.** reduction in viral RNA copy number

**Q.** And the “selectivity index (CC50/IC50) for MERS-CoV” value [4]?
**A.** 19

**Q.** And the pIC50 [4, 8]?
**A.** 4.85

**Q.** Which results are given for `CN1CCN2c3ncccc3Cc3ccccc3C2C1` (stereo not drawn) [Mirtazapine]?
**A.** pIC50 [2, 7]: 3.74; CC50 at 72 h (in vitro): 572 µM; CC50 at 72 h (in vitro; values given in Fig. 2): 572 µM; pIC50 [4, 8]: 3.88

**Q.** With `Fc1ccc([C@@H]2CCNC[C@H]2COc2ccc3c(c2)OCO3)cc1` [Paroxetine] as the molecule, how does the “mode of action against MERS-CoV” value (MERS-CoV [5]) read?
**A.** virucidal and replication potential combination mechanisms

**Q.** And the “mode of action against SARS-CoV-2” value (SARS-CoV-2 [1])?
**A.** remarkable virucidal effect and effects on virus replication

**Q.** And the “selectivity index (CC50/IC50) for SARS-CoV-2” value [2]?
**A.** 11.6

**Q.** What about the pIC50 [2, 7] of the same molecule?
**A.** 4.64

**Q.** What about the CC50 at 72 h (in vitro) of the same molecule?
**A.** 264 µM

**Q.** And the “effect” value (SARS-CoV-2 [3])?
**A.** reduction in viral RNA copy number

**Q.** And the inhibition at 8.3 µM (SARS-CoV-2 [3]; Severe acute respiratory syndrome coronavirus 2, Vero C1008, 48 h, read-out: viral inhibition compared to untreated and infected cells (qRT-PCR))?
**A.** 99%

**Q.** And the “effect” value (MERS-CoV [6])?
**A.** reduction in viral RNA copy number

**Q.** What about the “selectivity index (CC50/IC50) for MERS-CoV” value [4] of the same molecule?
**A.** 34.2

**Q.** What about the pIC50 [4, 9] of the same molecule?
**A.** 5.11

**Q.** What about the pIC50 [4, 8] of the same molecule?
**A.** 5.11

**Q.** Which results are given for `CN[C@H]1CC[C@@H](c2ccc(Cl)c(Cl)c2)c2ccccc21` [Sertraline]?
**A.** mode of action against MERS-CoV (MERS-CoV [5]): virucidal and adsorption mechanisms; CC50 at 72 h (in vitro): 116 µM; effect on viral RNA copy number (qRT-PCR) (MERS-CoV [6]): reduction in viral RNA copy number
